Columns and labels:
Assay in all cases: Kinase profiling in a biochemical assay panel (mobility shift assays and ELISA), %-inhibition at 1 μM; selectivity entropy
[1] = molecular target: T1, panel of more than 300 wild-type and mutant kinases (313 kinase panel) (Homo sapiens, UniProt P45985)
T1 sequence (P45985 1-399): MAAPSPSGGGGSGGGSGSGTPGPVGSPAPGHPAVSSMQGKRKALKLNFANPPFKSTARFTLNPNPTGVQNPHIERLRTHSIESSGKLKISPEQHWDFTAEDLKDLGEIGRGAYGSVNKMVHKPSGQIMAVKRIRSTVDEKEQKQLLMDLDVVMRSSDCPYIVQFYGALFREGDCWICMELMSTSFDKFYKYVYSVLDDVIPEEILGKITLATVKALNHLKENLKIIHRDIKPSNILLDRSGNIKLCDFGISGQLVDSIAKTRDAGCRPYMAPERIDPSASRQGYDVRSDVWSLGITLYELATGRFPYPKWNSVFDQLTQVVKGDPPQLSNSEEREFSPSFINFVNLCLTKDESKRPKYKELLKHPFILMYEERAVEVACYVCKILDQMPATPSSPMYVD

[2] = molecular target: panel of more than 300 wild-type and mutant kinases (313 kinase panel) (Homo sapiens, UniProt P80192)
[3] = molecular target: panel of more than 300 wild-type and mutant kinases (313 kinase panel) (Homo sapiens, UniProt P78362)
[4] = molecular target: panel of more than 300 wild-type and mutant kinases (313 kinase panel) (Homo sapiens, UniProt P04049)
[5] = molecular target: T2, panel of more than 300 wild-type and mutant kinases (313 kinase panel) (Homo sapiens, UniProt Q8IWQ3)
T2 sequence (Q8IWQ3 1-736): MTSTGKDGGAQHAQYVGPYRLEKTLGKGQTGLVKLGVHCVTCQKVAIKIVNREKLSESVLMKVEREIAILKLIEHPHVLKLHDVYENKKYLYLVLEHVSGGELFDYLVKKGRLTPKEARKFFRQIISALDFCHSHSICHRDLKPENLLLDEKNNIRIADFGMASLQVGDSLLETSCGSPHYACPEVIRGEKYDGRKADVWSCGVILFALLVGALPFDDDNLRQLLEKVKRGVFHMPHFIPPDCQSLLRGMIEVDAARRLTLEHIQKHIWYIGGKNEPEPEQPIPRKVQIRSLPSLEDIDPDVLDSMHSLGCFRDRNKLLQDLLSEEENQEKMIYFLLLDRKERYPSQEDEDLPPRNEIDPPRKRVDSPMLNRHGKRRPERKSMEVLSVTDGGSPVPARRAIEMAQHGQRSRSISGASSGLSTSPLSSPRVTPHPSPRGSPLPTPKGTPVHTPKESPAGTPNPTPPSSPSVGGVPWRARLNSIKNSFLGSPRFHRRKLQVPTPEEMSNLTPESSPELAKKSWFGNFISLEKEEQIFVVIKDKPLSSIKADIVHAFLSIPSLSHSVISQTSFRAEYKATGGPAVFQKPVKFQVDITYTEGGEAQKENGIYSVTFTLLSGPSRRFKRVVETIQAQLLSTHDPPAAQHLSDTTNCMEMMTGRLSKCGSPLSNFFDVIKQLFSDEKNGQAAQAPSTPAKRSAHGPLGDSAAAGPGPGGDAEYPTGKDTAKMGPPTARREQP

[6] = molecular target: panel of more than 300 wild-type and mutant kinases (313 kinase panel) (Homo sapiens, UniProt P42685)
[7] = molecular target: T3, panel of more than 300 wild-type and mutant kinases (313 kinase panel) (Homo sapiens, UniProt P29320)
T3 sequence (P29320 21-983): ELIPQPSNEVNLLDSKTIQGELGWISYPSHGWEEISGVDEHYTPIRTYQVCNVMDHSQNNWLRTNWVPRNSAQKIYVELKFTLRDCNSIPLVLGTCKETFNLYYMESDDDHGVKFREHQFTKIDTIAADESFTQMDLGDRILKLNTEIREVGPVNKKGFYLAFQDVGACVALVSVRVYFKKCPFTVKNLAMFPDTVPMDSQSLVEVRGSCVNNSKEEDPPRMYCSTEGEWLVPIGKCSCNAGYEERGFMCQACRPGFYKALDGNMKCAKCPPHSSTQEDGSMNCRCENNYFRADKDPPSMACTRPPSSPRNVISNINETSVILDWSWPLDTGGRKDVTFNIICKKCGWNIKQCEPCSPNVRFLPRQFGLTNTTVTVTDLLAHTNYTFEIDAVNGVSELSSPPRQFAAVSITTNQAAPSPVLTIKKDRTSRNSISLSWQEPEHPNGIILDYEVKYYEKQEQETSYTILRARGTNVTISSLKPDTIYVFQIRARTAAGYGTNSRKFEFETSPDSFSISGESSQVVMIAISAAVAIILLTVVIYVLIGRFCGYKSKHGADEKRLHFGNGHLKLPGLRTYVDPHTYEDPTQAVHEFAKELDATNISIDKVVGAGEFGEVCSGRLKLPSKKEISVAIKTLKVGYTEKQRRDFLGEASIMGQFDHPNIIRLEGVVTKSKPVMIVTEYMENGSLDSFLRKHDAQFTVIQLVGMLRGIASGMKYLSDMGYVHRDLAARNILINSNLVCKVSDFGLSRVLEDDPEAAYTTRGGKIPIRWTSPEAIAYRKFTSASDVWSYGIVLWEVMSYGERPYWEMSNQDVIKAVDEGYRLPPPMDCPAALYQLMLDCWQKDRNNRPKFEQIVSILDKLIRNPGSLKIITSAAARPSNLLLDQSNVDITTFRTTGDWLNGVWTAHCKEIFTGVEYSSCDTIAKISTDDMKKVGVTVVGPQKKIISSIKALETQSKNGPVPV

[8] = molecular target: panel of more than 300 wild-type and mutant kinases (313 kinase panel) (Homo sapiens, UniProt P54756)
[9] = kinase MAP2K4, compound at 1 μM

Sequence of panel of more than 300 wild-type and mutant kinases (313 kinase panel) (Homo sapiens, UniProt P04049) (P04049 whole entry, change not shown): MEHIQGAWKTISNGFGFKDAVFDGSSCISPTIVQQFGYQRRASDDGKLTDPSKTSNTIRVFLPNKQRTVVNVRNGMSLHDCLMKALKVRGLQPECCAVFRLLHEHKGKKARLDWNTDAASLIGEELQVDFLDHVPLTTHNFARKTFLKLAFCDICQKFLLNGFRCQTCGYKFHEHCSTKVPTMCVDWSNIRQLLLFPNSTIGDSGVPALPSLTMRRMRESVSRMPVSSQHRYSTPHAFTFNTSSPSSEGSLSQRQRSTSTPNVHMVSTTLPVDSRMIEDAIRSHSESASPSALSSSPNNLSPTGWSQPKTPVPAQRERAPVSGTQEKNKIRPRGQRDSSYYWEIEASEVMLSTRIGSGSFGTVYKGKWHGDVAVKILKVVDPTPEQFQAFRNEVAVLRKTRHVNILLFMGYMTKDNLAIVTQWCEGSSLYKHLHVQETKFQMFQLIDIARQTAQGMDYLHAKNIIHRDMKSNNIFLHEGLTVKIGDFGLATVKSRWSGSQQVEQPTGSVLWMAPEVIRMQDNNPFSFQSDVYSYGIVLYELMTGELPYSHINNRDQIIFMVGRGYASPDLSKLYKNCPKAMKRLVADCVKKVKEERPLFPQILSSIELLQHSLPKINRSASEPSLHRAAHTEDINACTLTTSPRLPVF
Sequence of panel of more than 300 wild-type and mutant kinases (313 kinase panel) (Homo sapiens, UniProt P42685) (P42685 whole entry, change not shown): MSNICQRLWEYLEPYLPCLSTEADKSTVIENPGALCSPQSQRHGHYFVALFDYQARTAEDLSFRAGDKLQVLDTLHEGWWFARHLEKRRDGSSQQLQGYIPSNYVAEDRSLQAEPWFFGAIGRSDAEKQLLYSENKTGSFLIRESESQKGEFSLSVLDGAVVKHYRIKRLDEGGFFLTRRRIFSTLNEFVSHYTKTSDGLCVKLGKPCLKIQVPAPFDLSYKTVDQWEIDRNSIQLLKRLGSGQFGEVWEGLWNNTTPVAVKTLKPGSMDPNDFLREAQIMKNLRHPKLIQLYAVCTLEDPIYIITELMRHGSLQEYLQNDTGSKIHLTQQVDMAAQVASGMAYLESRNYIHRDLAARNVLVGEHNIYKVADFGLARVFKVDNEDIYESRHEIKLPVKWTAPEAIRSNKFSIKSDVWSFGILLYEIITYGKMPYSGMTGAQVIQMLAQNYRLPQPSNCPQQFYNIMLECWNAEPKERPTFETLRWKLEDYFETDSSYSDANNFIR
Sequence of panel of more than 300 wild-type and mutant kinases (313 kinase panel) (Homo sapiens, UniProt P80192) (P80192 whole entry, change not shown): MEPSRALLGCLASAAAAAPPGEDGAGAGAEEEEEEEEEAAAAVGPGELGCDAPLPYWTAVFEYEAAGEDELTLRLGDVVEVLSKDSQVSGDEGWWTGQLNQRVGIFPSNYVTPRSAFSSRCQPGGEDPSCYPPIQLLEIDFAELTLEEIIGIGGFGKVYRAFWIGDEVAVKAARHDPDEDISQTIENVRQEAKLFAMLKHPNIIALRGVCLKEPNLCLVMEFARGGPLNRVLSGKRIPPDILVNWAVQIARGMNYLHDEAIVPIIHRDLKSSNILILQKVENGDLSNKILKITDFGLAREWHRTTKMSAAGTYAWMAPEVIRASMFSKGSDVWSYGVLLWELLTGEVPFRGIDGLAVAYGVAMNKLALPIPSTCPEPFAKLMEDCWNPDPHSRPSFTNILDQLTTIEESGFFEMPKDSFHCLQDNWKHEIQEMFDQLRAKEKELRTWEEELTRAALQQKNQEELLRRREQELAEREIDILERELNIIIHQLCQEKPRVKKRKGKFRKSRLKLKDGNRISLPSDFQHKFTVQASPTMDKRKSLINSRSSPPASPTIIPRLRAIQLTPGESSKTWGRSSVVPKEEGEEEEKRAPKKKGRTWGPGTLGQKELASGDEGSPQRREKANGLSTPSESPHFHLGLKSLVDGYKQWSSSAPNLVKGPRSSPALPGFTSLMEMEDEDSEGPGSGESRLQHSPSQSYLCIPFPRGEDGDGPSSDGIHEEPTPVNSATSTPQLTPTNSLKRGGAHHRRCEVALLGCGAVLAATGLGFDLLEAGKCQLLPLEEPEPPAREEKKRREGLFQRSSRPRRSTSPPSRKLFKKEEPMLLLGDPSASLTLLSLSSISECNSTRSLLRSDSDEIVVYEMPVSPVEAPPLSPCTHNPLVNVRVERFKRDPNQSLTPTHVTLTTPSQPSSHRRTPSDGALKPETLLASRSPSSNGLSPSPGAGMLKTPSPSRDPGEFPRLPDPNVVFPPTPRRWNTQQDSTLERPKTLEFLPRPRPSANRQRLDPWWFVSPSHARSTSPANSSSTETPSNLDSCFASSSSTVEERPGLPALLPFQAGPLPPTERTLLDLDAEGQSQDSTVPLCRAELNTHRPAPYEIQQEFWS

| Structure (SMILES) | %-inhibition of MAP2K4 ([1]; 1 µM) | %-inhibition of MLK1 ([2]; 1 µM) | %-inhibition of SRPK2 ([3]; 1 µM) | %-inhibition of RAF1 ([4]; 1 µM) | %-inhibition, BRSK2 ([5]; 1 µM) | %-inhibition of FRK ([6]; 1 µM) | %-inhibition of EPHA3 ([7]; 1 µM) | %-inhibition of EPHA5 ([8]; 1 µM) | %-inhibition of MAP2K4 [1, 9] | %-inhibition of MLK1 ([2]; kinase MLK1, 1 μM) | %-inhibition of SRPK2 ([3]; kinase SRPK2, 1 μM) | %-inhibition, BRSK2 ([5]; kinase BRSK2, 1 μM compound) | %-inhibition of FRK ([6]; kinase FRK, compound at 1 μM) | %-inhibition of EPHA3 ([7]; kinase EPHA3, compound at 1 μM) | %-inhibition of RAF1 ([4]; kinase RAF1, 1 μM) | %-inhibition of EPHA5 ([8]; kinase EPHA5, compound at 1 μM) |
| --- | --- | --- | --- | --- | --- | --- | --- | --- | --- | --- | --- | --- | --- | --- | --- | --- |
| C#Cc1cccc(Nc2ncnc3cc(OCCOC)c(OCCOC)cc23)c1 [erlotinib] | -6% | 14% | 4.47% | 0.534% | 3.75% | 41% | 15% | 38% | – | – | – | – | – | – | – | – |
| Cc1cn(-c2cc(NC(=O)c3ccc(C)c(Nc4nccc(-c5cccnc5)n4)c3)cc(C(F)(F)F)c2)cn1 [nilotinib] | – | – | – | 58% | – | – | – | 93% | -4.54% | -12% | -0.605% | -0.27% | 70% | 87% | – | – |
| CC(=O)Nc1cccc(-n2c(=O)n(C3CC3)c(=O)c3c(Nc4ccc(I)cc4F)n(C)c(=O)c(C)c32)c1 [trametinib] | – | – | – | – | – | – | – | – | 2.18% | 16% | -0.868% | 5.38% | -3% | -6% | 61% | -2.67% |

Source: article PMC3961306, “Comparison of the Cancer Gene Targeting and Biochemical Selectivities of All Targeted Kinase Inhibitors Approved for Clinical Use” (PLoS ONE, 2014)
